Reference: patent publication US4163799A, “Psychostimulant compounds” (Union Chimique Continentale U.C.C., priority 1975, dated 1979)
Counter-ions that a name gives are not always drawn.

How the values were obtained:
[1] = Antihypnotic effect / pentobarbital antagonism (conclusion); type: in vivo
[2] = Determination of acute toxicity in the mouse (LD50, Behrens and Karber method); design: species or system mouse (male, Swiss NMRI); conditions: in vivo
Method: (§1) All the experiments described below were carried out on male rats weighing between 170 and 220 g (Wistar AF strain) and male mice weighing between 18 and 23 g (Swiss NMRI strain), unless indicated to the contrary. All the experiments were conducted in a constant-temperature laboratory (22±1° C.). […] Unless indicated to the contrary 10 animals per batch were always used.

Perforated board test = type: in vivo
Method: as §1
The technique and apparatus described by Boissier and Simon (Physiol. Behav. 1967, 2, 444-448) were used. In these experiments 15 animals per group were used (except for 30 for the controls and 30 for the 32 mg/kg dose).

monoaminoxidase = assay: Inhibitory effect of monoaminoxidase (tryptamine test); type: in vivo, rat (male, Wistar AF); conditions: 16 and 64 mg/kg orally; tryptamine 3 mg/kg IV
Method: as §1

[3] = Overall activity and wakefulness profile (conclusion of the study); type: in vivo, rat and mouse
[4] = Observation of animals, rat; type: in vivo, rat (male, Wistar AF)
Method: as §1

[5] = Anticataleptic activity test (prochlorperazine); type: in vivo, rat (male, Wistar AF); conditions: 8 or 32 mg/kg ip or orally; prochlorperazine 8 mg/kg ip; homolateral paws, buddha, rocking plate tests
Method: as §1

[6] = Interaction with convulsants: cardiazol; type: in vivo; conditions: 64 mg/kg orally 30 minutes before cardiazol 160 mg/kg SC
Method: as §1

[7] = Antireserpine activity test, mouse; type: in vivo, mouse (male, Swiss NMRI); conditions: 8, 16, 32 mg/kg orally, reserpine 2.5 mg/kg IP 4 hours before
Method: as §1

[8] = Interaction with convulsants: electric shock; type: in vivo, mouse (male, Swiss NMRI); conditions: 4, 16, 64 mg/kg orally 60 minutes before electric shock
Method: as §1

[9] = Stereotypy test with amphetamine; type: in vivo, rat (male, Wistar AF); conditions: 32 or 64 mg/kg orally 60 minutes before amphetamine 2 mg/kg IP
Method: as §1

[10] = Motor activity in the rat (actimeter); type: in vivo, rat (male, 90-110 g)
Method: as §1
The motor activity was determined on male rats weighing between 90 and 110 g with the aid of the actimeter, the same instrument cited with regard to motor activity in the mouse.
The NaAHDH doses were given immediately before the actimeter was switched on.

[11] = Modification of hypnotic effects (pentobarbital), mouse; type: in vivo, mouse (male, Swiss NMRI); conditions: 16, 32, 64 mg/kg orally, with or 60 minutes before pentobarbital
Method: as §1

[12] = Antireserpine activity test, rat; type: in vivo, rat (male, Wistar AF); conditions: 8, 16, 32 mg/kg orally, reserpine 2.5 mg/kg IP 4 hours before
Method: as §1

[13] = Hot plate test with the mouse; type: in vivo, mouse (male, Swiss NMRI)
Method: as §1
This test was used to measure the reaction time of the animals to a painful stimulus. Ten animals were used per point. Fifteen minutes after oral administration of NaAHDH (32 mg/kg) the reaction time (licking of front paws) of the mice exposed to the hot plate was 5.8 seconds while that of the controls was 7.3 seconds (significant difference at the 0.05 threshold).

[14] = Observation of animals, mouse; type: in vivo, mouse (male, Swiss NMRI)
Method: as §1

[15] = Modification of hypnotic effects (pentobarbital), rat; type: in vivo, rat (male, Wistar AF); conditions: 16, 32, 64 mg/kg orally, with or 60 minutes before pentobarbital
Method: as §1

[16] = Potentialization of apomorphine; type: in vivo; conditions: compared with caffeine; no method described
[17] = Avoidance conditioning, two-compartment shuttle-box; type: in vivo, rat (male, Wistar AF); conditions: 16 and 64 mg/kg orally, previously trained rats
Method: as §1
This avoidance conditioning in the rat placed in a two-compartment shuttle-box described by Boissier and Simon (Therapie 1968, 23, 1267-1276) was studied.

[18] = Conditioned-inhibition test (four-plate test); type: in vivo, mouse (male, Swiss NMRI); conditions: 4, 8, 16, 32 and 64 mg/kg
Method: as §1
A simple conditioned-inhibition test was used, namely the four-plate test (Neuropharmacology, Aron et al, 1971, 10, 459-470).

[19] = 8 mg/kg orally 60 min before test
[20] = 16 mg/kg orally 60 min before test
[21] = 32 mg/kg orally 60 min before test
[22] = 64 mg/kg orally 60 min before test
[23] = doses less than toxic, beginning with 4 mg/kg orally or ip
[24] = doses less than toxic, from 4 mg/kg orally or ip
[25] = doses very close to the lethal doses
[26] = only at doses very close to the lethal doses

CC(O)CC(c1ccccc1)C(C(=O)O)c1ccccc1 (stereo not shown) [NaAHDH, Sodium Salt of 5-Hydroxy-2,3-Diphenyl-Hexanoic Acid]
pentobarbital antagonism ([1]; at clearly stimulating doses): no pentobarbital antagonism | antihypnotic effect ([1]; compared with caffeine): no antihypnotic effect | LD50 ([2]; ip, intraperitoneally): 175 mg/kg | LD50 ([2]; po, administered orally): 998 mg/kg | holes explored in 5 min (Perforated board test; [19]): 101 percentage of controls | movements made in 5 min (Perforated board test; [19]): 102 percentage of controls | holes explored in 5 min (Perforated board test; [20]): 121 percentage of controls | movements made in 5 min (Perforated board test; [20]): 116 percentage of controls | holes explored in 5 min (Perforated board test; [21]): 140 percentage of controls | movements made in 5 min (Perforated board test; [21]): 159 percentage of controls | holes explored in 5 min (Perforated board test; [22]): 143 percentage of controls | movements made in 5 min (Perforated board test; [22]): 150 percentage of controls | movements (Perforated board test; orally): clear increase in movements | holes explored (Perforated board test; orally, significant from 16 mg/kg upward): large increase in the holes explored | minimal effective dose (Perforated board test; po, orally, read-out: dose from which increase in holes explored is significant): ≥ 16 mg/kg | potentialization of effects of infra-convulsant dose of tryptamine (monoaminoxidase): no potentialization of the effects of an infra-convulsant dose of tryptamine | signs of sympathetic excitation ([3]; by contrast to nooanaleptics): no signs of sympathetic excitation | persistence of increase in activity and wakefulness ([3]; orally, after administration): about 2 hours | sexual behavior [4]: increase of sexual behavior | excitation, reactivity to touch and sound stimuli [4, 23]: slight excitation was observed with enhanced reactivity to touch and sound stimuli | diameter of the pupil [4, 24]: no change was observed in the diameter of the pupil | hyperthermia [4, 24]: slight hyperthermia | motor coordination, abnormal or stereotyped movements [4, 24]: not accompanied by lack of motor coordination or abnormal or stereotyped movements | hyperthermia [4, 25]: about 2 °C | toxic signs [4, 26]: trembling, hyperreactivity to very intense stimuli, interaggressivity, and convulsive phenomena extending to the rear paws | modification of cataleptic condition [5]: no modification to the cataleptic condition | latency of convulsions [6]: no decrease in the latency of convulsions | modification of hyperthermia or drooping eyelid induced by reserpine [7]: no modification of hyperthermia or drooping eyelid induced by reserpine | duration or appearance of the convulsions [8]: modified neither the duration nor appearance of the convulsions | motility after the convulsion [8]: no increase in motility after the convulsion | modification of amphetamine stereotyped movements [9]: no modification in stereotyped movements | number of beams interrupted, 30 + 5 min ([10]; 16 mg/kg ip): 39 | number of beams interrupted, 30 + 10 min ([10]; 16 mg/kg ip): 67 | number of beams interrupted, 30 + 15 min ([10]; 16 mg/kg ip): 104 | number of beams interrupted, 30 + 20 min ([10]; 16 mg/kg ip): 133 | number of beams interrupted, 30 + 25 min ([10]; 16 mg/kg ip): 156 | number of beams interrupted, 30 + 30 min ([10]; 16 mg/kg ip): 182 ± 39 | number of beams interrupted, 30 min ([10]; 16 mg/kg ip): 461 ± 32 | number of beams interrupted, 30 + 5 min ([10]; 32 mg/kg ip): 88 | number of beams interrupted, 30 + 10 min ([10]; 32 mg/kg ip): 191 | number of beams interrupted, 30 + 15 min ([10]; 32 mg/kg ip): 274 | number of beams interrupted, 30 + 20 min ([10]; 32 mg/kg ip): 372 | number of beams interrupted, 30 + 25 min ([10]; 32 mg/kg ip): 452 | number of beams interrupted, 30 + 30 min ([10]; 32 mg/kg ip): 531 ± 84 | number of beams interrupted, 30 min ([10]; 32 mg/kg ip): 631 ± 49 | number of beams interrupted, 30 + 5 min ([10]; 32 mg/kg vo (orally)): 31 | number of beams interrupted, 30 + 10 min ([10]; 32 mg/kg vo (orally)): 69 | number of beams interrupted, 30 + 15 min ([10]; 32 mg/kg vo (orally)): 100 | number of beams interrupted, 30 + 20 min ([10]; 32 mg/kg vo (orally)): 118 | number of beams interrupted, 30 + 25 min ([10]; 32 mg/kg vo (orally)): 131 | number of beams interrupted, 30 + 30 min ([10]; 32 mg/kg vo (orally)): 164 ± 58 | number of beams interrupted, 30 min ([10]; 32 mg/kg vo (orally)): 433 ± 43 | number of beams interrupted, 30 + 5 min ([10]; 64 mg/kg vo (orally)): 58 | number of beams interrupted, 30 + 10 min ([10]; 64 mg/kg vo (orally)): 124 | number of beams interrupted, 30 + 15 min ([10]; 64 mg/kg vo (orally)): 197 | number of beams interrupted, 30 + 20 min ([10]; 64 mg/kg vo (orally)): 265 | number of beams interrupted, 30 + 25 min ([10]; 64 mg/kg vo (orally)): 325 | number of beams interrupted, 30 + 30 min ([10]; 64 mg/kg vo (orally)): 396 ± 62 | number of beams interrupted, 30 min ([10]; 64 mg/kg vo (orally)): 517 ± 25 | motor activity ([10]; 16 and 32 mg/kg intraperitoneally): increase in motor activity | motor activity ([10]; 32 and 64 mg/kg orally): increase in motor activity | time taken to fall asleep or length of sleep [11]: no modification to the time taken to fall asleep or the length of sleep | modification of hyperthermia or drooping eyelid induced by reserpine [12]: no modification of hyperthermia or drooping eyelid induced by reserpine | effects of an analgesic dose of morphine on hot plate test ([13]; 32 mg/kg, with morphine): did not increase or decrease the effects of an analgesic dose of morphine | reaction time (licking of front paws) ([13]; 15 min after 32 mg/kg orally, controls 7.3 seconds, significant at 0.05): 5.8 s | excitation, reactivity to touch and sound stimuli [14, 23]: slight excitation was observed with enhanced reactivity to touch and sound stimuli | diameter of the pupil [14, 24]: no change was observed in the diameter of the pupil | hyperthermia [14, 24]: slight hyperthermia | motor coordination, abnormal or stereotyped movements [14, 24]: not accompanied by lack of motor coordination or abnormal or stereotyped movements | hyperthermia [14, 25]: about 2 °C | toxic signs [14, 26]: trembling, hyperreactivity to very intense stimuli, interaggressivity, and convulsive phenomena extending to the rear paws | time taken to fall asleep or length of sleep [15]: no modification to the time taken to fall asleep or the length of sleep | potentialization of apomorphine [16]: does not potentialize apomorphine | change in avoidance conditioning [17]: no change in the conditioning | animals' performance in four-plate test [18]: slight in increase in the animals' performance | modification of conditioned inhibition [18]: no modification of conditioned inhibition
